Consider 15 compounds from patent US20260078119A1, “DEGRADER COMPOUNDS AND USES THEREOF” (Bristol-Myers Squibb Company, priority 2024, published 2026).

The structures appear in SMILES notation. pEC50: −log10 of the molar value. Bounds are passed on as bounds.

Experiment [1] relates to CAL-51 cells. The experiment in a line: CAL-51 Cell Proliferation Assay. Type of experiment: cell-based. To be noted: for pEC50: Homo sapiens, 120 hours incubation, 10-point dose response, 4-fold dilutions starting at 10 μM, Cell-Titer-Glo, read-out: CAL-51 Prolif EC50; for CAL-51 Prolif Ymin: minimal percent of DMSO control observed in the concentrations tested (Ymin-obs), 120 hours. The essentials: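 Cells seeded at 350/well in RPMI complete medium onto 10-point, 4-fold compound dilutions from 10 μM (0.1% DMSO), in duplicate, and grown 120 h at 37 °C. CellTiter-Glo luminescence, blank-subtracted and normalised to DMSO, was fitted with a four-parameter logistic to give EC50; Ymin-obs is the lowest observed percent of DMSO control.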

For experiment [2], the target named is T1, FAK (Homo sapiens, UniProt Q05397).
T1 construct: homozygous knock-in of a HiBiT tag (Promega Corporation, Madison, WI) to the C-terminus of the FAK gene in its natural genomic locus; endogenous in cells; host or cells: JHH-4-FAK-HiBiT clone d01 (CRISPR-Cas9 knock-in at the endogenous locus)
Briefly: FAK-HiBiT Degradation Assay. Type of experiment: cell-based. The conditions noted are these: for DC50: JHH-4-FAK-HiBiT clone d01 cells, two hours incubation, 10-point dose response, 3-fold dilution starting at 1 μM, Nano-Glo HiBiT luminescence, read-out: FAK HiBiT EC50; for FAK HiBiT Ymin: lower limit of the four parameter fit (value A), Ymax derived using DMSO control, JHH-4-FAK-HiBiT cells, two hours. The procedure, abridged: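 JHH-4 cells with homozygous CRISPR knock-in of C-terminal HiBiT on endogenous FAK, treated 2 h at 37 °C with compounds in 10-point 3-fold series from 1 μM. HiBiT lytic luminescence read; EC50 from four-parameter logistic fit, Ymax set by DMSO control, Ymin as lower fit limit.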

T1 sequence (Q05397 whole entry): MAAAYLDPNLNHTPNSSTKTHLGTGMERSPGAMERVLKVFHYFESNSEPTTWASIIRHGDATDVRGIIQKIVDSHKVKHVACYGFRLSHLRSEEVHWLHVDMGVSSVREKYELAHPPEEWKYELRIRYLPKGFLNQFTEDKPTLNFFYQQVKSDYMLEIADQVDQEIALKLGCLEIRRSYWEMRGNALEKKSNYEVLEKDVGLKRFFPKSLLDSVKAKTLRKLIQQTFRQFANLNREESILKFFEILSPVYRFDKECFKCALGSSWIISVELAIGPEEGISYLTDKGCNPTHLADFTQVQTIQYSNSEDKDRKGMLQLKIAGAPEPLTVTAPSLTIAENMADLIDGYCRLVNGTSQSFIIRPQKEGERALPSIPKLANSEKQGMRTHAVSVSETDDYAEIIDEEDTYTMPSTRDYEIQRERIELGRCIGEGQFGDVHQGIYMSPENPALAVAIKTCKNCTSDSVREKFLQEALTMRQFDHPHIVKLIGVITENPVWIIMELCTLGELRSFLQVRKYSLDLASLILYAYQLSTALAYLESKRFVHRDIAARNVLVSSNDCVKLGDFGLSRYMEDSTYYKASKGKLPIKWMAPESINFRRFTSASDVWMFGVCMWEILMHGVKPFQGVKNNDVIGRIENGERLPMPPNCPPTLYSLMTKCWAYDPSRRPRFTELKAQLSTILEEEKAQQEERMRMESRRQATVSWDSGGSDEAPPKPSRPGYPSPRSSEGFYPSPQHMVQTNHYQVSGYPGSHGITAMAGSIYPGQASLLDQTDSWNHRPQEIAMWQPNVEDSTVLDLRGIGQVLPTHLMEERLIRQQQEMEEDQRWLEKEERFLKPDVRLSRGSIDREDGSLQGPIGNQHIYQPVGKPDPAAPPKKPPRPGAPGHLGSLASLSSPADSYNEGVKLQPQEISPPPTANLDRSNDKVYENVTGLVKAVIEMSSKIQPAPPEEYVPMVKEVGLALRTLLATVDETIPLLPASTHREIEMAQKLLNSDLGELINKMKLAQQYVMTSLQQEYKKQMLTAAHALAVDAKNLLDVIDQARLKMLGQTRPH

Take `CC(C)(O)c1cnc(-c2cc(N3CC(F)C3)nc3c2cnn3Cc2ccc3c(c2)CN([C@H]2CCC(=O)NC2=O)C3=O)c(Cl)c1` [Example 119, (3S)-3-[5-({4-[3-chloro-5-(2-hydroxypropan-2-yl)pyridin-2-yl]-6-(3-fluoroazetidin-1-yl)-1H-pyrazolo[3,4-b]pyridin-1-yl}methyl)-1-oxo-2,3-dihydro-1H-isoindol-2-yl]piperidine-2,6-dione]: in experiment [1], the negative logarithm of the EC50 (pEC50) is 7.57 and the “CAL-51 Prolif Ymin” value amounted to 59.05. Also, in experiment [2], the DC50 was determined as 0.0849 µM and the “FAK HiBiT Ymin” value stood at 40.36.
For `CN(c1cc(-c2ncc(C(F)(F)F)cc2Cl)c2cnn(Cc3ccc4c(c3)CN([C@H]3CCC(=O)NC3=O)C4=O)c2n1)[C@H]1C[C@@H](O)C1` [Example 120, (3R)-3-[5-({4-[3-chloro-5-(trifluoromethyl)pyridin-2-yl]-6-{methyl[(1s,3s)-3-hydroxycyclobutyl]amino}-1H-pyrazolo[3,4-b]pyridin-1-yl}methyl)-1-oxo-2,3-dihydro-1H-isoindol-2-yl]piperidine-2,6-dione] the same measures were 8.52, 28.57, 0.0871 µM and 12.66.
Take `N#Cc1cnc(-c2cc(N3CC[C@H](O)C3)nc3c2cnn3Cc2ccc3c(c2)CN([C@H]2CCC(=O)NC2=O)C3=O)c(F)c1` [Example 121, 6-[1-({2-[(3S)-2,6-dioxopiperidin-3-yl]-1-oxo-2,3-dihydro-1H-isoindol-5-yl}methyl)-6-[(3S)-3-hydroxypyrrolidin-1-yl]-1H-pyrazolo[3,4-b]pyridin-4-yl]-5-fluoropyridine-3-carbonitrile]: in experiment [1], the pEC50 was 5.87 and the “CAL-51 Prolif Ymin” value was 75.47. For the same compound, in experiment [2], the DC50 stood at 0.0954 µM and the “FAK HiBiT Ymin” value amounted to 40.50.
For `O=C1CC[C@H](N2Cc3cc(Cn4ncc5c(-c6ncc(F)cc6F)cc(N6CC[C@H](O)C6)nc54)ccc3C2=O)C(=O)N1` [Example 123, (3S)-3-(5-{[4-(3,5-difluoropyridin-2-yl)-6-[(3S)-3-hydroxypyrrolidin-1-yl]-1H-pyrazolo[3,4-b]pyridin-1-yl]methyl}-1-oxo-2,3-dihydro-1H-isoindol-2-yl)piperidine-2,6-dione] the same measures were 7.55, 78.23, 0.109 µM and 45.54.
On the same counts, the results for `Cc1cc(F)cnc1-c1cc(N2CC[C@H](O)C2)nc2c1cnn2Cc1ccc2c(c1)CN([C@H]1CCC(=O)NC1=O)C2=O` [Example 125, (3S)-3-(5-{[4-(5-fluoro-3-methylpyridin-2-yl)-6-[(3S)-3-hydroxypyrrolidin-1-yl]-1H-pyrazolo[3,4-b]pyridin-1-yl]methyl}-1-oxo-2,3-dihydro-1H-isoindol-2-yl)piperidine-2,6-dione] are 6.58, 34.48, 0.149 µM and 29.00.
On the same counts, the results for `O=C1CCC(N2Cc3cc(Cn4ncc5c(-c6ncc(C(F)(F)F)cc6Cl)cc(NC6COC6)nc54)ccc3C2=O)C(=O)N1` (stereo not drawn) [Example 126, 3-[5-({4-[3-chloro-5-(trifluoromethyl)pyridin-2-yl]-6-[(oxetan-3-yl)amino]-1H-pyrazolo[3,4-b]pyridin-1-yl}methyl)-1-oxo-2,3-dihydro-1H-isoindol-2-yl]piperidine-2,6-dione] are 9.33, 91.32, 0.169 µM and 89.33.
For the compound `CN1CCC(Nc2cc(-c3ncc(C(F)(F)F)cc3Cl)c3cnn(Cc4ccc5c(c4)CN(C4CCC(=O)NC4=O)C5=O)c3n2)C1` (stereo not drawn) [Example 128, 3-[5-({4-[3-chloro-5-(trifluoromethyl)pyridin-2-yl]-6-[(1-methylpyrrolidin-3-yl)amino]-1H-pyrazolo[3,4-b]pyridin-1-yl}methyl)-1-oxo-2,3-dihydro-1H-isoindol-2-yl]piperidine-2,6-dione], in experiment [1], the pEC50 was 6.72 and the “CAL-51 Prolif Ymin” value turned out to be 83.49. Also, in experiment [2], the DC50 is 0.292 µM and the “FAK HiBiT Ymin” value is listed as 58.00.
For the compound `O=C1CCC(N2Cc3cc(Cn4ncc5c(-c6nnccc6C(F)(F)F)cc(N6CC(F)C6)nc54)ccc3C2=O)C(=O)N1` (stereo not drawn) [Example 129, 3-(5-{[6-(3-fluoroazetidin-1-yl)-4-[4-(trifluoromethyl)pyridazin-3-yl]-1H-pyrazolo[3,4-b]pyridin-1-yl]methyl}-1-oxo-2,3-dihydro-1H-isoindol-2-yl)piperidine-2,6-dione], in experiment [1], the pEC50 was 6.30 and the “CAL-51 Prolif Ymin” value was determined as 92.49. Moreover, in experiment [2], the DC50 was at least 1 µM and the “FAK HiBiT Ymin” value was 95.34.
As to `COc1cc(F)cnc1-c1cc(N2CC(F)C2)nc2c1cnn2Cc1ccc2c(c1)CN(C1CCC(=O)NC1=O)C2=O` (stereo not drawn) [Example 130, 3-(5-{[4-(5-fluoro-3-methoxypyridin-2-yl)-6-(3-fluoroazetidin-1-yl)-1H-pyrazolo[3,4-b]pyridin-1-yl]methyl}-1-oxo-2,3-dihydro-1H-isoindol-2-yl)piperidine-2,6-dione], in experiment [1], the pEC50 was 5.41 and the “CAL-51 Prolif Ymin” value is reported as 76.29. Besides, in experiment [2], the DC50 is at least 1 µM and the “FAK HiBiT Ymin” value worked out at 84.84.
With `O=C1CC[C@H](N2Cc3cc(Cn4ncc5c(-c6ncc(C(F)(F)F)cc6Cl)cc(N6CCOCC6)nc54)ccc3C2=O)C(=O)N1` [Example 131, (3S)-3-[5-({4-[3-chloro-5-(trifluoromethyl)pyridin-2-yl]-6-(morpholin-4-yl)-1H-pyrazolo[3,4-b]pyridin-1-yl}methyl)-1-oxo-2,3-dihydro-1H-isoindol-2-yl]piperidine-2,6-dione], in experiment [1], the pEC50 was 8.51 and the “CAL-51 Prolif Ymin” value is listed as 59.06. In addition, in experiment [2], the DC50 was at least 1 µM and the “FAK HiBiT Ymin” value came out at 92.07.
For the compound `O=C1CCC(N2Cc3cc(Cn4ncc5c(-c6ncc(C(F)(F)F)cc6Cl)cc(N[C@H]6CCOC6)nc54)ccc3C2=O)C(=O)N1` (stereo partly drawn) [Example 132, 3-[5-({4-[3-chloro-5-(trifluoromethyl)pyridin-2-yl]-6-{[(3S)-oxolan-3-yl]amino}-1H-pyrazolo[3,4-b]pyridin-1-yl}methyl)-1-oxo-2,3-dihydro-1H-isoindol-2-yl]piperidine-2,6-dione], in experiment [1], the pEC50 is 10.00 and the “CAL-51 Prolif Ymin” value was found to be 89.52. In experiment [2], the DC50 is at least 1 µM and the “FAK HiBiT Ymin” value is recorded as 89.82.
For `O=C1CCC(N2Cc3cc(Cn4ncc5c(-c6ncc(C(F)(F)F)cc6Cl)cc(N[C@@H]6CCOC6)nc54)ccc3C2=O)C(=O)N1` (stereo partly drawn) [Example 133, 3-[5-({4-[3-chloro-5-(trifluoromethyl)pyridin-2-yl]-6-{[(3R)-oxolan-3-yl]amino}-1H-pyrazolo[3,4-b]pyridin-1-yl}methyl)-1-oxo-2,3-dihydro-1H-isoindol-2-yl]piperidine-2,6-dione] the same measures were 7.63, 84.63, at least 1 µM and 82.45.
For `O=C1CC[C@H](N2Cc3cc(Cn4ncc5c(-c6ncc(C(F)(F)F)cc6Cl)cc(NC6CCOCC6)nc54)ccc3C2=O)C(=O)N1` [Example 134, (3S)-3-[5-({4-[3-chloro-5-(trifluoromethyl)pyridin-2-yl]-6-[(oxan-4-yl)amino]-1H-pyrazolo[3,4-b]pyridin-1-yl}methyl)-1-oxo-2,3-dihydro-1H-isoindol-2-yl]piperidine-2,6-dione] the same measures were 8.07, 65.79, at least 1 µM and 91.34.
On the same counts, the results for `COc1cc(C2CC2)cnc1-c1cc(N2CC(F)C2)nc2c1cnn2Cc1ccc2c(c1)CN(C1CCC(=O)NC1=O)C2=O` (stereo not drawn) [Example 135, 3-(5-{[4-(5-cyclopropyl-3-methoxypyridin-2-yl)-6-(3-fluoroazetidin-1-yl)-1H-pyrazolo[3,4-b]pyridin-1-yl]methyl}-1-oxo-2,3-dihydro-1H-isoindol-2-yl)piperidine-2,6-dione] are at most 5.00, 84.14, at least 1 µM and 87.67.
For the compound `CN1CCN(c2cc(-c3ncc(C(F)(F)F)cc3Cl)c3cnn(Cc4ccc5c(c4)CN([C@H]4CCC(=O)NC4=O)C5=O)c3n2)CC1` [Example 136, (3S)-3-[5-({4-[3-chloro-5-(trifluoromethyl)pyridin-2-yl]-6-(4-methylpiperazin-1-yl)-1H-pyrazolo[3,4-b]pyridin-1-yl}methyl)-1-oxo-2,3-dihydro-1H-isoindol-2-yl]piperidine-2,6-dione], in experiment [1], the pEC50 is at most 5.00 and the “CAL-51 Prolif Ymin” value is listed as 95.61. In experiment [2], the DC50 was at least 1 µM and the “FAK HiBiT Ymin” value is given as 96.76.

Broadly, the pEC50 is −log10 of the EC50, conventionally taken in molar units.
